Where “and” joins values, the source holds several entries; their conditions need not be identical. Identical values can stand only once.
Legend:
[1] = test system: Nude mice (nu/nu), AtT-20 cells; assay: Tumor-associated cachexia model, urinary urea loss; format: in vivo; conditions: for URINARY UREA LOSS / URINARY UREA LOSS, Sum totals: 0.4 mg/Kg daily i.p.; for URINARY UREA LOSS, Sum totals: sum of listed days
Protocol: An animal model of tumor-associated protein catabolic illness (cachexia) was employed to directly test the efficacy of Compound No. 14 in reducing whole-body nitrogen losses. Tumors were induced in the appropriate groups by intramuscular inoculation with 15×10^6 AtT-20 cells; this model is known to cause a protein catabolic illness characterized by the consumption of normal quantities of food, but 20% net whole-body losses of protein within 14 days. Compound No. 14 was administered to the “treated” groups in a daily dose of 0.4 mg/Kg, intraperitoneal. Nude mice (nu/nu) were housed in metabolic cages (4 per cage) to facilitate collection of daily urine samples for 14 days. Food intake was measured daily. There were four groups of animals: 1) untreated, non-tumor bearing controls; 2) untreated, tumor-bearing; 3) treated, tumor-bearing, and 4) treated, non-tumor-bearing. Urine was collected and urinary urea losses quantified.

C3H/HeN mice = assay: Carrageenan-induced paw swelling; format: in vivo
Protocol: Paw edema was induced by injection of 50 microliters of 1% Lambda-carrageenan in HEPES 25 mM, pH 7.4, into the planter surface of the left hindpaw of C3H/HeN mice, the right paw was injected with 50 microliters of HEPES alone. The animals were divided into two groups: controls (n=3) received vehicle only, i.p. 1.5 hour before paw injection; the experimental group […] was treated with Compound No. 14, 5 mg/Kg, i.p. 1.5 hour before paw injection. Three hours after paw injection, paw thickness was measured using a caliper, and the data expressed as change of carrageenan paw vs HEPES paw thickness.
The results are summarized in Table V which contains the carrageenan-induced increase in paw thickness in mm of three control and three Compound No. 14 treated mice. The inhibition can also be reported as percent inhibition of swelling as defined by the standard formula: Percent inhibition=(1−(treated/control))×100. Calculation of this parameter for treated animals in which Compound No. 14 suppressed swelling yields a 70% inhibition.

TNF = assay: Cytokine production by LPS/γIFN-stimulated human PBMC: TNF; format: cell-based; conditions: γIFN+LPS, 18 hr
Excerpt: Similar results concerning a variety of cytokines in addition to TNF, e.g., IL-6 and Macrophage Inflammatory Proteins-1α and -1β (MIP-1α and MIP-1β) were obtained using human peripheral blood as a source of monocytes. Human peripheral blood mononuclear cells (PBMC) were isolated using “FICOLL®”-based methods and plated in standard 6-well culture plates at a concentration of 10^6/well and allowed to adhere for from 2 hr to overnight whereupon non-adherent cells were washed out and the medium was then replaced with medium containing the compound to be tested. One hour later, the medium was supplemented so as to contain 25 U/ml γIFN and 0.1 μg/ml LPS and the cultures incubated a further 18 hr. The medium was then collected, and cell debris removed by centrifugation. This conditioned supernatant was then assayed for the presence of cytokines using the standard methodologies of L929 cell cytotoxicity bioassay and immunoassay (ELISA).

Lewis rats = assay: Focal cerebral infarction (middle cerebral artery severing); format: in vivo; conditions: 1 mg/Kg i.v. one hour before artery severed; 24 hours; p<0.05 vs controls
Protocol: Lewis rats (male, 270-300 g) were given food and water ad libi tum before and after surgery. Animals were anesthetized with ketamine (120 mg/Kg i.m.), allowed to breathe spontaneously, and body temperature maintained at 35.5-36.5° C. with a heating blanket. The ventral neck and area between the right eye and ear was shaved. A midline ventral cervical incision was used to expose the left common carotid artery (CCA) which was dissected free from surrounding tissue with preservation of the vagus nerve. A loop of 4-0 silk was then placed around the artery for future manipulation. The right common carotid artery was then exposed and permanently occluded with double 4-0 silk ligatures. […]
Twenty-four hours after MCA severing, animals were anesthetized and decapitated and the brains were quickly removed without perfusion and coronally sectioned at 1 mm intervals with a brain slicer for analysis. […] Slices were then placed in buffered 10% formalin and infarct area determined by planimetry on projected images of photographed brain slices. Infarct size for an individual animal was calculated by summing the infarct area present on each brain slice and dividing by the sum of hemisphere area for all slices for that animal (expressed as a percentage of hemisphere area for each slice). Animals were studied in groups of 10, and the data expressed as average stroke volume for the group.

[2] = over the 14 day period, per mouse

Question: `CC(=NNC(=N)N)c1cc(NC(=O)CCCCCCCCC(=O)Nc2cc(C(C)=NNC(=N)N)cc(C(C)=NNC(=N)N)c2)cc(C(C)=NNC(=N)N)c1.Cl.Cl.Cl.Cl` [Compound 14, N,N′-bis(3,5-diacetyl-phenyl)decanediamide tetrakis(amidinohydrazone) tetrahydrochloride] was tested. Which “URINARY UREA LOSS” value ([1]; Controls, Treated (non-tumor-bearing), day 2) did it give?
Answer: 193 mg/group

Question: And the “URINARY UREA LOSS” value ([1]; Controls, Treated (non-tumor-bearing), day 4)?
Answer: 285 mg/group

Question: What about the “URINARY UREA LOSS” value ([1]; Controls, Treated (non-tumor-bearing), day 6) of the same compound?
Answer: 397 mg/group

Question: And the “URINARY UREA LOSS” value ([1]; Controls, Treated (non-tumor-bearing), day 7)?
Answer: 247 mg/group

Question: And the “URINARY UREA LOSS” value ([1]; Controls, Treated (non-tumor-bearing), day 8)?
Answer: 257 mg/group

Question: And the “URINARY UREA LOSS” value ([1]; Controls, Treated (non-tumor-bearing), day 10)?
Answer: 216 mg/group

Question: And the “URINARY UREA LOSS” value ([1]; Controls, Treated (non-tumor-bearing), day 11)?
Answer: 239 mg/group

Question: What about the “URINARY UREA LOSS” value ([1]; Controls, Treated (non-tumor-bearing), day 12) of the same compound?
Answer: 203 mg/group

Question: What about the “URINARY UREA LOSS” value ([1]; Controls, Treated (non-tumor-bearing), day 13) of the same compound?
Answer: 242 mg/group

Question: And the “URINARY UREA LOSS” value ([1]; Controls, Treated (non-tumor-bearing), day 14)?
Answer: 157 mg/group

Question: And the “URINARY UREA LOSS, Sum totals” value ([1]; Controls, Treated (non-tumor-bearing))?
Answer: 2436 mg/group

Question: What about the “URINARY UREA LOSS” value ([1]; Tumor, Treated, day 2 after tumor) of the same compound?
Answer: 195 mg/group

Question: What about the “URINARY UREA LOSS” value ([1]; Tumor, Treated, day 4 after tumor) of the same compound?
Answer: 368 mg/group

Question: What about the “URINARY UREA LOSS” value ([1]; Tumor, Treated, day 6 after tumor) of the same compound?
Answer: 295 mg/group

Question: What about the “URINARY UREA LOSS” value ([1]; Tumor, Treated, day 7 after tumor) of the same compound?
Answer: 312 mg/group

Question: What about the “URINARY UREA LOSS” value ([1]; Tumor, Treated, day 8 after tumor) of the same compound?
Answer: 275 mg/group

Question: And the “URINARY UREA LOSS” value ([1]; Tumor, Treated, day 10 after tumor)?
Answer: 206 mg/group

Question: What about the “URINARY UREA LOSS” value ([1]; Tumor, Treated, day 11 after tumor) of the same compound?
Answer: 219 mg/group

Question: What about the “URINARY UREA LOSS” value ([1]; Tumor, Treated, day 12 after tumor) of the same compound?
Answer: 115 mg/group

Question: And the “URINARY UREA LOSS” value ([1]; Tumor, Treated, day 13 after tumor)?
Answer: 201 mg/group

Question: What about the “URINARY UREA LOSS” value ([1]; Tumor, Treated, day 14 after tumor) of the same compound?
Answer: 187 mg/group

Question: What about the “URINARY UREA LOSS, Sum totals” value ([1]; Tumor, Treated) of the same compound?
Answer: 2373 mg/group

Question: And the “loss of urea prevented” value ([1]; over the 14 day period)?
Answer: approximately 200 mg urea/mouse

Question: What about the “nitrogen retained (equivalent of urea loss prevented)” value [1, 2] of the same compound?
Answer: approximately 100 mg

Question: What about the “protein retained (equivalent of urea loss prevented)” value [1, 2] of the same compound?
Answer: ~625 mg

Question: And the “wet muscle mass retained (equivalent of urea loss prevented)” value [1, 2]?
Answer: ~2.7 g

Question: What about the “CHANGE IN PAW THICKNESS (carrageenan paw vs HEPES paw)” value (C3H/HeN mice; 5 mg/Kg i.p. 1.5 hour before paw injection, three hours after, individual mice) of the same compound?
Answer: 0.54 mm and 0.41 mm and 0.4 mm

Question: What about the “Percent inhibition of swelling” value (C3H/HeN mice; 5 mg/Kg i.p., (1−(treated/control))×100) of the same compound?
Answer: 70%

Question: What about the “concentration that effectively inhibited production of TNF” value (TNF) of the same compound?
Answer: 10 to 20 µM

Question: And the “mean infarct (stroke) size, percentage of hemisphere area” value (Lewis rats)?
Answer: 1.7%±0.2%

Source: US20020028851A1, “Guanylhydrazones and their use to treat inflammatory conditions” (priority 1994, published 2002)
